How the values were obtained:
Human NPT2b = target: T1, Human NPT2b (Homo sapiens, UniProt O95436); experiment: NPT2b activity assay (33P-phosphate uptake in T-Rex CHO cells); format: cell-based; settings: geometric mean, n=3
T1 construct: expressed in transfected cells; host or cells: T-Rex CHO (Thermo Fisher Scientific), tetracycline-inducible
T1 sequence (O95436 1-690): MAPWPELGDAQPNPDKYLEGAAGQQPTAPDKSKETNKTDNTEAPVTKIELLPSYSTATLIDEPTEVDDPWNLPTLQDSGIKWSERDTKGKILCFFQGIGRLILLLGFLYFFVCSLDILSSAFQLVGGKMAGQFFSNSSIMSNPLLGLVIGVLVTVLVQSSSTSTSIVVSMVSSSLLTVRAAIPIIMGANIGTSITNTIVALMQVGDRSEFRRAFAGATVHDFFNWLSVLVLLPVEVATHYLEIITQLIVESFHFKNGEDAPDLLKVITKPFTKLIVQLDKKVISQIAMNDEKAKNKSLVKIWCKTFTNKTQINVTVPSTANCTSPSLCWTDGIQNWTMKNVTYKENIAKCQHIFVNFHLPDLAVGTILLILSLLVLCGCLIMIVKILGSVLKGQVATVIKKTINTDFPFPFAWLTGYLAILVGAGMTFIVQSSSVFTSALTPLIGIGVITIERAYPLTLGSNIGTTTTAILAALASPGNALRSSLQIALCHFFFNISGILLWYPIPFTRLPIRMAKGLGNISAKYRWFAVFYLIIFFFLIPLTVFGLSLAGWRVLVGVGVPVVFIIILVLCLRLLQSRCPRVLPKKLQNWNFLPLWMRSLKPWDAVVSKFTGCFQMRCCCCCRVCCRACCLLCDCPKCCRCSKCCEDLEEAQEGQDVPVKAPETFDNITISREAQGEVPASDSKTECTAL
Method: Generation of inducible human, mouse, and rat NPT2b overexpressing T-Rex™ Chinese Hamster Ovary (CHO, Thermo Fisher Scientific) cells and the NPT2b activity assay were described previously. Briefly, cells were plated in 96-well CytoStar-T® scintillating microplates and were incubated overnight in medium plus 100 ng/mL of tetracycline to induce the expression of human NPT2b. The cells were then washed 3 times with 200 μL Assay Buffer (137 mM NaCl, 5.4 mM KCl, 2.8 mM CaCl2, 1.2 mM MgSO4, and 14 mM Tris-HCl buffer, pH 7.5). LY3304000 serially diluted 1-to-3 in DMSO was added to cells with Assay Buffer. An equal volume of H3^33PO4 (PerkinElmer) in Assay Buffer supplemented with 5 μM potassium phosphate was then added to initiate radiolabeled phosphate (^33P-phosphate) uptake. The final phosphate concentration was 2.5 μM. Following a 60-minute incubation at room temperature, an equal volume of Assay Buffer containing 400 μM phloretin was added to stop ^33P-phosphate uptake. The plate was immediately read on a Wallac MicroBeta Trilux liquid scintillation counter. Percent inhibition at all concentrations tested was calculated, and IC50 values were then determined using a 4-parameter logistic curve fitting equation.

[1] = tested on: acute phosphate uptake into plasma; experiment: Acute radiolabeled phosphate uptake into plasma in rats; format: in vivo
Method: A dosing solution for a 10 mg/kg dose of LY3304000 using a 10 mL/kg dosing volume was made in 1% HEC vehicle. The subsequent dosing solutions for 3, 1, 0.3, 0.1, 0.03, 0.01, 0.003, and 0.001 mg/kg were prepared by serial dilutions with HEC. A Radiolabeled Phosphate Dosing Solution was made in a 16.25 mM Na2HPO4, 0.9% saline, pH 7.4, solution with the addition of about 2.5 μCi/mL radioactive phosphate (H3^33PO4, PerkinElmer) and filtered before dosing. Following 12-hour fasting with access to water, male SD rats were orally dosed at 10 mL/kg with either vehicle or varying doses of LY3304000. Fifteen minutes later, 2 mL of the Radiolabeled Phosphate Dosing Solution was dosed by oral gavage. This dose of phosphate was chosen because it approximates the rat equivalent to the amount of bioavailable phosphate in a human meal, 4 mg/kg phosphorus, or 320 mg phosphorus for an 80 kg person on a phosphate restricted diet. Fifteen minutes later, blood was collected by cardiac stick, and plasma was prepared. Radioactivity (dpm) in 50 μL plasma was measured by scintillation counting. To determine the total radioactivity dosed to each rat, the radioactivity in two 10-μL samples of the Radiolabeled Phosphate Dosing Solution was measured by scintillation counting. To calculate the total radioactivity recovered in plasma, it was assumed that total blood volume constitutes about 60% of the body weight and plasma constitutes about 55% of the total blood. The mole amount of phosphate uptake was calculated as the percentage of administered radiolabeled phosphate recovered in the plasma of vehicle or LY3304000 treated rats multiplied by total phosphate amount in the radiolabeled phosphate dosing solution. ED50 values were then determined with a 4-parameter logistic curve fitting model using GraphPad Prism. A 15-minute time point, post phosphate dosing, was chosen for collecting blood in the acute phosphate uptake studies in rats and mice (see below) to capture the initial rate of phosphate absorption. We wanted to avoid measurements at longer time points when plasma radiolabeled phosphate appears to be at a steady state.

CN1Cc2c(Cl)cc(Cl)cc2[C@H](c2cccc(S(=O)(=O)NCCOCCOCCN/C(=N\C(N)=O)NCCCCN/C(=N/C(N)=O)NCCOCCOCCNS(=O)(=O)c3cccc([C@@H]4CN(C)Cc5c(Cl)cc(Cl)cc54)c3)c2)C1.Cl.Cl [LY3304000, (Z)-[[4-[[(Z)-N’-carbamoyl-N-[2-[2-[2-[[3-[(4S)-6,8-dichloro-2-methyl-3,4-dihydro-1H-isoquinolin-4-yl]phenyl]sulfonylamino]ethoxy]ethoxy]ethyl]carbamimidoyl]amino]butylamino]-[2-[2-[2-[[3-[(4S)-6,8-dichloro-2-methyl-3,4-dihydro-1H-isoquinolin-4-yl]phenyl]sulfonylamino]ethoxy]ethoxy]ethylamino]methylene]urea dihydrochloride]
IC50 (Human NPT2b): 58.4 µM | maximal inhibition of phosphate uptake [1]: 37% | ED50 ([1]; Rattus norvegicus, po, 0.25 h, oral, plasma 15 min post 33P phosphate, read-out: ED50 (decrease of phosphate uptake)): 0.04 mg/kg | Emax, Pi uptake ([1]; curve fit): 266.8 nmol | ED50 (decrease of phosphate uptake) ([1]; oral, plasma 15 min post 33P phosphate): 0.041 mg/kg | radiolabeled phosphate in plasma, maximal determined decrease ([1]; vehicle 416 nmoles): 264 nmol
